{"source": "PubChem BioAssay (NCI)", "assay_in_all_cases": "NCI-60 cell line screen, 48 h", "key": {"IGROV1 ovarian": {"tested_on": "IGROV1 ovarian"}, "SK-MEL-2 melanoma": {"tested_on": "SK-MEL-2 melanoma"}, "HL-60(TB) leukemia": {"tested_on": "HL-60(TB) leukemia"}, "SW-620 colon": {"tested_on": "SW-620 colon"}, "SK-MEL-28 melanoma": {"tested_on": "SK-MEL-28 melanoma"}, "MDA-MB-435": {"tested_on": "MDA-MB-435"}, "SF-539 CNS": {"tested_on": "SF-539 CNS"}, "HCC-2998 colon": {"tested_on": "HCC-2998 colon"}, "HOP-62 NSCLC": {"tested_on": "HOP-62 NSCLC"}, "DU-145 prostate": {"tested_on": "DU-145 prostate"}, "T-47D breast": {"tested_on": "T-47D breast"}, "KM12 colon": {"tested_on": "KM12 colon"}, "OVCAR-3 ovarian": {"tested_on": "OVCAR-3 ovarian"}, "OVCAR-5 ovarian": {"tested_on": "OVCAR-5 ovarian"}, "COLO 205 colon": {"tested_on": "COLO 205 colon"}, "MDA-N": {"tested_on": "MDA-N"}, "UACC-257 melanoma": {"tested_on": "UACC-257 melanoma"}, "TK-10 renal": {"tested_on": "TK-10 renal"}, "HT29 colon": {"tested_on": "HT29 colon"}, "HOP-92 NSCLC": {"tested_on": "HOP-92 NSCLC"}, "786-0 renal": {"tested_on": "786-0 renal"}, "ACHN renal": {"tested_on": "ACHN renal"}, "OVCAR-8 ovarian": {"tested_on": "OVCAR-8 ovarian"}, "OVCAR-4 ovarian": {"tested_on": "OVCAR-4 ovarian"}, "CCRF-CEM leukemia": {"tested_on": "CCRF-CEM leukemia"}, "EKVX NSCLC": {"tested_on": "EKVX NSCLC"}, "NCI-H23 lung": {"tested_on": "NCI-H23 lung"}, "NCI-H460 lung": {"tested_on": "NCI-H460 lung"}, "SK-MEL-5 melanoma": {"tested_on": "SK-MEL-5 melanoma"}, "LOX IMVI melanoma": {"tested_on": "LOX IMVI melanoma"}, "A549 NSCLC": {"tested_on": "A549 NSCLC"}, "RXF 393 renal": {"tested_on": "RXF 393 renal"}, "NCI-H522 lung": {"tested_on": "NCI-H522 lung"}, "SK-OV-3 ovarian": {"tested_on": "SK-OV-3 ovarian"}, "M14 melanoma": {"tested_on": "M14 melanoma"}, "SNB-75 CNS": {"tested_on": "SNB-75 CNS"}, "SF-295 CNS": {"tested_on": "SF-295 CNS"}, "MALME-3M melanoma": {"tested_on": "MALME-3M melanoma"}, "SR leukemia": {"tested_on": "SR leukemia"}, "U251 CNS": {"tested_on": "U251 CNS"}, "HCT-15 colon": {"tested_on": "HCT-15 colon"}, "PC-3 prostate": {"tested_on": "PC-3 prostate"}, "HCT-116 colon": {"tested_on": "HCT-116 colon"}, "SN12C renal": {"tested_on": "SN12C renal"}, "K-562 leukemia": {"tested_on": "K-562 leukemia"}, "SNB-19 CNS": {"tested_on": "SNB-19 CNS"}, "MDA-MB-231 breast": {"tested_on": "MDA-MB-231 breast"}, "UACC-62 melanoma": {"tested_on": "UACC-62 melanoma"}, "MCF7 breast": {"tested_on": "MCF7 breast"}, "NCI-H226 lung": {"tested_on": "NCI-H226 lung"}, "NCI/ADR-RES ovarian": {"tested_on": "NCI/ADR-RES ovarian"}, "MOLT-4 leukemia": {"tested_on": "MOLT-4 leukemia"}, "A498 renal": {"tested_on": "A498 renal"}, "SF-268 CNS": {"tested_on": "SF-268 CNS"}}, "note": "Where “and” joins values, the source holds several entries; their conditions need not be identical. Equal entries are not always repeated.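 Growth conditions: 96-well plates. Treatment: test compound, 48 hours, 5 concentrations. Analysis: linear interpolation between bracketing concentrations; unreached endpoints set to highest concentration. Here, GI50 denotes the concentration required for 50% inhibition of growth. The concentration for full growth arrest is given as TGI.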", "data": [{"smiles": "CC(=O)OCC1OC(n2c(C)c(C(C)=O)c(-c3ccco3)c(C#N)c2=S)C(OC(C)=O)C(OC(C)=O)C1OC(C)=O", "note": "(stereo not drawn)", "values": [{"measurement": "GI50", "setting": "IGROV1 ovarian", "value": "> 100 µM and 43.6 µM"}, {"measurement": "TGI", "setting": "IGROV1 ovarian", "value": "> 100", "unit": "µM"}, {"measurement": "GI50", "setting": "SK-MEL-2 melanoma", "value": "27.4 µM and 74.4 µM"}, {"measurement": "TGI", "setting": "SK-MEL-2 melanoma", "value": "98.4 µM and > 100 µM"}, {"measurement": "TGI", "setting": "HL-60(TB) leukemia", "value": "> 100", "unit": "µM"}, {"measurement": "TGI", "setting": "SW-620 colon", "value": "> 100", "unit": "µM"}, {"measurement": "TGI", "setting": "SK-MEL-28 melanoma", "value": "> 100", "unit": "µM"}, {"measurement": "TGI", "setting": "MDA-MB-435", "value": "> 100", "unit": "µM"}, {"measurement": "TGI", "setting": "SF-539 CNS", "value": "> 100", "unit": "µM"}, {"measurement": "TGI", "setting": "HCC-2998 colon", "value": "> 100", "unit": "µM"}, {"measurement": "TGI", "setting": "HOP-62 NSCLC", "value": "> 100", "unit": "µM"}, {"measurement": "TGI", "setting": "DU-145 prostate", "value": "> 100", "unit": "µM"}, {"measurement": "TGI", "setting": "T-47D breast", "value": "> 100", "unit": "µM"}, {"measurement": "TGI", "setting": "KM12 colon", "value": "> 100", "unit": "µM"}, {"measurement": "TGI", "setting": "OVCAR-3 ovarian", "value": "> 100", "unit": "µM"}, {"measurement": "TGI", "setting": "OVCAR-5 ovarian", "value": "> 100", "unit": "µM"}, {"measurement": "TGI", "setting": "COLO 205 colon", "value": "> 100", "unit": "µM"}, {"measurement": "TGI", "setting": "MDA-N", "value": "> 100", "unit": "µM"}, {"measurement": "TGI", "setting": "UACC-257 melanoma", "value": "> 100", "unit": "µM"}, {"measurement": "TGI", "setting": "TK-10 renal", "value": "> 100", "unit": "µM"}, {"measurement": "TGI", "setting": "HT29 colon", "value": "> 100", "unit": "µM"}, {"measurement": "TGI", "setting": "HOP-92 NSCLC", "value": 87.5, "unit": "µM"}, {"measurement": "TGI", "setting": "786-0 renal", "value": "> 100", "unit": "µM"}, {"measurement": "TGI", "setting": "ACHN renal", "value": "> 100", "unit": "µM"}, {"measurement": "TGI", "setting": "OVCAR-8 ovarian", "value": "> 100", "unit": "µM"}, {"measurement": "GI50", "setting": "OVCAR-4 ovarian", "value": "> 100 µM and 37.8 µM"}, {"measurement": "TGI", "setting": "OVCAR-4 ovarian", "value": "> 100", "unit": "µM"}, {"measurement": "TGI", "setting": "CCRF-CEM leukemia", "value": "> 100", "unit": "µM"}, {"measurement": "TGI", "setting": "EKVX NSCLC", "value": "> 100", "unit": "µM"}, {"measurement": "TGI", "setting": "NCI-H23 lung", "value": "> 100", "unit": "µM"}, {"measurement": "TGI", "setting": "NCI-H460 lung", "value": "> 100", "unit": "µM"}, {"measurement": "TGI", "setting": "SK-MEL-5 melanoma", "value": "> 100", "unit": "µM"}, {"measurement": "TGI", "setting": "LOX IMVI melanoma", "value": "> 100", "unit": "µM"}, {"measurement": "TGI", "setting": "A549 NSCLC", "value": "> 100", "unit": "µM"}, {"measurement": "TGI", "setting": "RXF 393 renal", "value": "> 100", "unit": "µM"}, {"measurement": "TGI", "setting": "NCI-H522 lung", "value": "> 100", "unit": "µM"}, {"measurement": "TGI", "setting": "SK-OV-3 ovarian", "value": "> 100", "unit": "µM"}, {"measurement": "TGI", "setting": "M14 melanoma", "value": "> 100", "unit": "µM"}, {"measurement": "GI50", "setting": "SNB-75 CNS", "value": 0.171, "unit": "µM"}, {"measurement": "TGI", "setting": "SNB-75 CNS", "value": 82.1, "unit": "µM"}, {"measurement": "TGI", "setting": "SF-295 CNS", "value": "> 100", "unit": "µM"}, {"measurement": "TGI", "setting": "MALME-3M melanoma", "value": "> 100", "unit": "µM"}, {"measurement": "TGI", "setting": "SR leukemia", "value": "> 100", "unit": "µM"}, {"measurement": "TGI", "setting": "U251 CNS", "value": "> 100", "unit": "µM"}, {"measurement": "TGI", "setting": "HCT-15 colon", "value": "> 100", "unit": "µM"}, {"measurement": "TGI", "setting": "PC-3 prostate", "value": "> 100", "unit": "µM"}, {"measurement": "TGI", "setting": "HCT-116 colon", "value": "> 100", "unit": "µM"}, {"measurement": "TGI", "setting": "SN12C renal", "value": "> 100", "unit": "µM"}, {"measurement": "TGI", "setting": "K-562 leukemia", "value": "> 100", "unit": "µM"}, {"measurement": "TGI", "setting": "SNB-19 CNS", "value": "> 100", "unit": "µM"}, {"measurement": "TGI", "setting": "MDA-MB-231 breast", "value": "> 100", "unit": "µM"}, {"measurement": "TGI", "setting": "UACC-62 melanoma", "value": "> 100", "unit": "µM"}, {"measurement": "TGI", "setting": "MCF7 breast", "value": "> 100", "unit": "µM"}, {"measurement": "TGI", "setting": "NCI-H226 lung", "value": "> 100", "unit": "µM"}, {"measurement": "TGI", "setting": "NCI/ADR-RES ovarian", "value": "> 100", "unit": "µM"}, {"measurement": "TGI", "setting": "MOLT-4 leukemia", "value": "> 100", "unit": "µM"}, {"measurement": "TGI", "setting": "A498 renal", "value": "> 100", "unit": "µM"}, {"measurement": "TGI", "setting": "SF-268 CNS", "value": "> 100", "unit": "µM"}]}]}
